Assay results: US20240307487A1 (priority 2020, published 2024)
Where a SMILES comes first, the peptide text is derived from it.

What was measured:
A(H1N1)pdm09 virus [1] = system: A(H1N1)pdm09 virus
A(H1N1)pdm09 virus [2] = type: cell-based
A(H1N1)pdm09 virus [3] = system: A(H1N1)pdm09 virus; remark: listed apart in the source

Structure (SMILES) | viral RNP release into nuclei (A(H1N1)pdm09 virus [1]) | inhibition of viral replication, SARS-CoV-2 (SARS-CoV-2) [fold] | inhibition of P30 and P40 virus replication (A(H1N1)pdm09 virus [2]) | inhibition of viral replication, A(H1N1)pdm09 virus (A(H1N1)pdm09 virus [3]) [fold] | inhibition of P10 virus replication (A(H1N1)pdm09 virus [2]) | inhibition of P15 virus replication (A(H1N1)pdm09 virus [2]) | IC50 (A(H1N1)pdm09 virus [2]; read-out: IC50 against parent A(H1N1)pdm09 virus (P0)) [nM]
CC[C@H](C)[C@H](NC(=O)[C@H](C)NC(=O)CNC(=O)[C@@H](N)CC(N)=O)C(=O)N[C@@H](CS)C(=O)N[C@@H](Cc1c[nH]c2ccccc12)C(=O)NCC(=O)N1CCC[C@H]1C(=O)N[C@@H](CS)C(=O)N1CCC[C@H]1C(=O)N[C@H](C(=O)N[C@@H](C)C(=O)N[C@@H](Cc1ccccc1)C(=O)N[C@@H](CCCNC(=N)N)C(=O)N[C@@H](CCC(N)=O)C(=O)N[C@H](C(=O)NCC(=O)N[C@@H](CC(N)=O)C(=O)N[C@@H](CS)C(=O)NCC(=O)N[C@@H](CCCNC(=N)N)C(=O)N[C@@H](Cc1ccccc1)C(=O)N[C@@H](CCCNC(=N)N)C(=O)N[C@H](C(=O)N[C@@H](CCCNC(=N)N)C(=O)N[C@@H](CS)C(=O)N[C@@H](CS)C(=O)N[C@@H](CCCNC(=N)N)C(=O)N[C@H](C(=O)N[C@@H](CCCNC(=N)N)C(=O)O)[C@@H](C)CC)C(C)C)[C@@H](C)CC)[C@@H](C)O [P9R] (H-NGAICWGPCPTAFRQIGNCGRFRVRCCRIR-OH) | could inhibit viral RNP release into nuclei | 1000 | could efficiently inhibit P30 and P40 virus replication | > 20 |  |  | 
